# Experimental data as given in EP0923292B1, “IMPROVED METHOD FOR SYSTEMIC ADMINISTRATION OF 2,4-DIENOIC ACID-TYPE INSECTICIDES TO TERRESTRIAL MAMMALS” (priority 1996, dated 1998).
# Like-named read-outs stand apart in the source and are kept apart here.
# Tests used:
# [1] = tested on: C. felis; details: supplier's technical literature; cited from earlier work
# [2] = tested on: adult cat fleas; assay: Flea ovicidal activity in vitro: artificial feeding system with treated beef blood (Examples 4 and 6); set-up: species or system C. felis; details: Ctenocephalides felis, read-out: Percent Inhibition of Flea Egg Hatching; for inhibition at 0.5 ppm: 0.5 ppm in beef blood; for inhibition at 5 ppm: 5.0 ppm in beef blood; for inhibition at 0.05 ppm: 0.05 ppm in beef blood
# Description: For the in vitro tests, an artificial feeding system with cages for adult cat fleas C. felis was used as described by Wade, S.E., et al., J. Med. Ent. 25(3): 186-190 (May 1988). Inside each cage were placed 100 one-week-old, unfed adult C. fells. Each cage included a container for treated blood separated from the fleas by a PARAFILM® membrane, and a compartment containing thin strips of paper to support loosely arranged clean dog hair and to provide a foothold for the fleas as they fed on the blood through the membrane.
# The artificial feeding system and cages for adult cat fleas described in Example 3 were used. Beef blood was used for the feeding system, and was prepared by adding 35 mL of a 20% sodium citrate solution per liter of blood to prevent clotting. A stock solution of lufenuron was prepared by adding 50.1 mg of technical lufenuron to 4.951 g of dimethyl sulfoxide (DMSO) to yield a 1.0% solution. A 1,000 ppm solution was then prepared by diluting 1.0 mL of the 1.0% solution in 9.0 mL of DMSO, and a 100 ppm solution was prepared by diluting 1.0 mL of the 1,000 ppm solution in 9.0 mL of DMSO. Dimethyl sulfoxide itself was used as a control. To treat the blood, the various solutions (0.05 mL) were added to the citrated beef blood (100.0 mL) to yield beef blood solutions containing 5.0 ppm, 0.5 ppm, 0.05 ppm, and 0.00 (zero) ppm lufenuron. Each solution was mixed thoroughly, and 10 mL at each concentration were placed in each of five feeders in the artificial feeding system to serve as replicates. Each day fresh blood solutions identical to the originals were placed in the feeders.
# Flea eggs were collected from each replicate on days 3, 5 and 7. One hundred (100) healthy appearing […] were counted under a dissecting microscope from each replicate, divided into two subsamples per replicate, and placed in 60 mm x 15 mm plastic petri dishes. The samples were incubated at 78°F and 85% relative humidity for three days, then scored for larval hatch using by visual observation through the dissecting microscope. The data from all replicates at each concentration were combined to yield the mean percent egg hatch, and the percent inhibition of egg hatch was calculated relative to the control.
# Retuming to (S)-methoprene, this example presents in vitro flea ovicidal activity using beef blood, for comparison with Example 4. Procedures using beef blood were the same as those indicated in the previous examples.
# [3] = remaining for at least 14 days after the administration of a single dose of 10 mg/kg; supplier's technical literature; cited from earlier work
# [4] = tested on: C. Felis fleas; assay: Lufenuron systemic flea ovicidal activity upon oral administration to host dogs (Example 5); type: in vivo, C. felis (host: dogs); details: oral single doses of 10 mg/kg at Day 0 and Day 28
# Procedure: Flea eggs were collected on Days -7, 0, 1, 2, 4, 7, and weekly thereafter through Day 63. Prior to egg collection, the cages in which the dogs were housed and the collection trays were rinsed with isopropyl alcohol, and the water was turned off, feed bowls and resting pads were removed from each cage. Trays covered with a screen made of […] hardware cloth were placed under the cages, and heavy white butcher paper was placed under the hardware cloth. After an interval of 14-16 hours, the paper was swept and the debris and flea eggs thus collected were transferred to a metal pan. The debris was separated from the eggs by sieving, and the eggs were placed in half-pint plastic cartons, then transferred to 10 cm x 10 cm glass plates. Using a dissecting microscope and a fine tipped artist brush, 100 flea eggs were counted from the sweepings of each dog and separated into four replicates of 25 eggs each. The eggs were placed in a 15 mm x 60 mm disposable plastic petri dish and incubated at 79-80°F and 80% relative humidity. Seventy two hours after collection, larvae emergence was determined. Both dead and live larvae were counted to determine the ovicidal effect of the treatment.
# Six random bred and purebred, clinically healthy dogs, three male and three female, ranging in weight from 5.5 kg to 17.2 kg each and in age from 5 months to 42 months, and having hair coats ranging from medium to coarse and from 1.0 to 5.0 cm in length, were used. The dogs were divided into two treatment groups of three dogs each. The dogs were all maintained on regular feeding schedules of dog food and water, and each dog in one of the two groups was administered an appropriate number of lufenuron-containing gelatin capsules to achieve a dosage of 10 mg/kg of the body weight of the dog. This dosage is identified in the supplier's technical literature as the minimum effective dosage for C. felis in dogs, and the dosage that will result in a blood concentration level of 0.05 ppm remaining for at least 14 days after the administration of a single dose. Administration was performed at Day 0 and again at Day 28.
# On Days -8 (eight days before the lufenuron administration), -4, 3, 10, 17, 24, 31, 38, 45, 52, and 59, approximately 100 unfed adult C. Felis fleas were applied to each dog by standard procedures. Flea eggs were collected and larval emergence (egg hatching) was determined by the procedures of Example 2 on Days -4, 0, 1, 2, 4, 7, 14, 21, 28, 35, 42, 49, and 56.
structure (smiles),measurement,setting,value
O=C(NC(=O)c1c(F)cccc1F)Nc1cc(Cl)c(OC(F)(F)C(F)C(F)(F)F)cc1Cl (stereo not drawn) [Lufenuron],minimum effective dosage for C. felis in dogs,[1],10 mg/kg
same,inhibition at 0.5 ppm,"[2]; 72 h, day 3, low number of eggs produced in both controls and treated groups",80.6%
same,inhibition at 5 ppm,"[2]; 72 h, day 3",100%
same,inhibition at 0.05 ppm,"[2]; 120 h, day 5",10.8%
same,inhibition at 0.5 ppm,"[2]; 120 h, day 5",56.5%
same,inhibition at 5 ppm,"[2]; 120 h, day 5",99.8%
same,inhibition at 0.05 ppm,"[2]; 168 h, day 7",6.9%
same,inhibition at 0.5 ppm,"[2]; 168 h, day 7",63.2%
same,inhibition at 5 ppm,"[2]; 168 h, day 7",100%
same,blood concentration level,[3],0.05 ppm
same,Percent Inhibition of Flea Egg Hatching,[4]; Day 1,39.9%
same,Percent Inhibition of Flea Egg Hatching,[4]; Day 2,70.6%
same,Percent Inhibition of Flea Egg Hatching,[4]; Day 4,54.5%
same,Percent Inhibition of Flea Egg Hatching,[4]; Day 7,54.1%
same,Percent Inhibition of Flea Egg Hatching,[4]; Day 14,52.1%
same,Percent Inhibition of Flea Egg Hatching,[4]; Day 21,10.7%
same,Percent Inhibition of Flea Egg Hatching,[4]; Day 28,0%
same,Percent Inhibition of Flea Egg Hatching,[4]; Day 35,48.6%
same,Percent Inhibition of Flea Egg Hatching,[4]; Day 42,0%
same,Percent Inhibition of Flea Egg Hatching,[4]; Day 49,72.7%
same,Percent Inhibition of Flea Egg Hatching,[4]; Day 56,20.5%
